Data on 17 molecules can be found in patent US12365674B2, “Inhibitors of histone deacetylase useful for the treatment or prevention of HIV infection” (Merck Sharp & Dohme LLC, priority 2019, dated 2025).

Each structure is given as a SMILES string.

In the test the target is T1, human HDAC3/SMRT heterodimer (Homo sapiens, UniProt O15379).
T1 construct: Full length human HDAC3-FLAG was expressed in HEK-293F cells along with SMRT; host or cells: HEK-293F cells
T1 sequence (O15379 whole entry): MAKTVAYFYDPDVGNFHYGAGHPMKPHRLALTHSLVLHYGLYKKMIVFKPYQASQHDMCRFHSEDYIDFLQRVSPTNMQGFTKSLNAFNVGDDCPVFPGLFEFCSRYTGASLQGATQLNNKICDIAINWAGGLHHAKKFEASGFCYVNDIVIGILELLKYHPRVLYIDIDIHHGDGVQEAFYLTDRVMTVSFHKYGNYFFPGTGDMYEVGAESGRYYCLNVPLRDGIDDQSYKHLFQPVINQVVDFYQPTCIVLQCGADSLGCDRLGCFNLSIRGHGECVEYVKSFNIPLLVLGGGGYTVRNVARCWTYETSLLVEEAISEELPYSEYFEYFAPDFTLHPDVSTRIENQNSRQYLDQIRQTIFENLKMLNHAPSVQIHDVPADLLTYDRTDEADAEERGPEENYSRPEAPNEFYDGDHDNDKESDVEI
T1 sequence (Q9Y618 1-899 partner limits assumed): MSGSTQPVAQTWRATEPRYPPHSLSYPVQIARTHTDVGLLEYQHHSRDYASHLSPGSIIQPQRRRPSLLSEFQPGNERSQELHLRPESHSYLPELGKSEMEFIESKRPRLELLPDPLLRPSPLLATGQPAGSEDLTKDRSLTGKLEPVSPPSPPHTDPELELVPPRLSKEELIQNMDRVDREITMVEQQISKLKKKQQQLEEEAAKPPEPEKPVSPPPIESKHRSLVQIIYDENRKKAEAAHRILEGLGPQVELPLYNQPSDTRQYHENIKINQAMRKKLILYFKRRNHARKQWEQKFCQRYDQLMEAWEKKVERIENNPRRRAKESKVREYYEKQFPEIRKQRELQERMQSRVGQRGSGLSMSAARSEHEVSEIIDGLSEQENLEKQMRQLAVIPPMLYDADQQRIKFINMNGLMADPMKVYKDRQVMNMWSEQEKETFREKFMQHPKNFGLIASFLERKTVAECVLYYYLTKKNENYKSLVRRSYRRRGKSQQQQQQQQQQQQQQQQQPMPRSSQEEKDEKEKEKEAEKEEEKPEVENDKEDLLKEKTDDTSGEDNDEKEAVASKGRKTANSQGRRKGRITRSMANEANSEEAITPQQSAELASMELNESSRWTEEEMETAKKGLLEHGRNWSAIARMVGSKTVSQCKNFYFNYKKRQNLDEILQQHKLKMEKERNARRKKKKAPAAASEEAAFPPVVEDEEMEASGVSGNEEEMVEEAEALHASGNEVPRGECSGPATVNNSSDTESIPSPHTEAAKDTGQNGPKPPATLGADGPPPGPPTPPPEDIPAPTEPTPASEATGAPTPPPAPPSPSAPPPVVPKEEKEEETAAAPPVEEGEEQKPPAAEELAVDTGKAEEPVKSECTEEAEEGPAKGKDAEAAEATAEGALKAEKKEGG
The experiment in a line: Human HDAC enzyme inhibitor Fluor-de-Lys assay, HDAC3/SMRT. Type of test: biochemical. Particulars: HDAC3/SMRT 0.3 nM enzyme, 20 μM substrate BML-KI104, 10 μM IP4, 3 h pre-incubation, 60 min reaction; read-out: HDAC3_IC50. From the text: Recombinant human HDAC8 (catalog number BML-SE145-0100) and HDAC10 (catalog number BML-SE559-0050) enzymes, HDAC substrates BML-KI104 and BML-KI178, and HDAC developer solutions BML-KI105 and BML-KI176 were purchased from Enzo Life Sciences (Farmingdale, NY). Recombinant human HDAC5 and HDAC11 were purchased from BPS Bioscience (San Diego, CA)(catalog numbers 50045 and 50021). Substrate Boc-Lys(TFA)-AMC was obtained from Bachem (Bupendorf, Switzerland) (catalog number 1-1985). HDAC inhibitor suberoylanilide hydroxamic acid (SAHA) was obtained from Indofine (Hillsborough Township, NJ) and trichostatin A (TSA) was obtained from Sigma-Aldrich (St. Louis, MO). […] HEPES pH 8.0 was obtained from Boston BioProducts (Ashland, MA), Tween-20 from Fisher Scientific (Hampton, NH)(catalog number BP337), TCEP from Calbiochem and 7.5% bovine serum albumin (BSA) from Life Technologies (Carlsbad, CA) (catalog number 15260037). 384-well, black assay plates were obtained from Corning (Corning, NY) (catalog number 3575).
Recombinant human HDAC1, HDAC2, and HDAC3/SMRT heterodimer were prepared by Merck Research Laboratories. […] The eluted protein was then passed over an anti-HDAC1 immunoaffinity column to remove any complexes containing HDAC1. […]
The histone deacetylase activities of HDAC1, HDAC2, HDAC3, HDAC6, and HDAC8 were measured in modified Fluor-de-Lys assays in 384-well format. In this assay, HDAC enzymes are initially incubated with an ε-acetyl (or -trifluoroacetyl)-L-lysine-containing substrate with a C-terminal amide having aminomethylcoumarin as the amine component. HDACs cleave the ε-acetyl group, rendering the resulting product susceptible to AMC cleavage by trypsin. The released AMC is then detected by its fluorescence.
The HDAC 1, 2 assays employed buffer A, which contained 20 mM HEPES, pH 8.0, 1 mM MgCl2, 137 mM NaCl, 2.7 mM KCl, 0.05% BSA. The HDAC3/SMRT assay employed buffer B, consisting of 20 mM HEPES, pH 8.0, 1 mM MgCl2, 50 mM NaCl, 2.7 mM KCl, 0.05% BSA, 0.005% Tween 20, and 10 μM IP4. The HDAC6 assay employed buffer C, consisting of 20 mM HEPES, pH 8.0, 1 mM MgCl2, 137 mM NaCl, 2.7 mM KCl, 0.5 mM TCEP (Calbiochem) and 0.05% BSA. The HDAC8 assay employed buffer D, consisting of 20 mM HEPES, pH 8.0, 1 mM MgCl2, 100 mM NaCl, 20 mM KCl, 0.1% n-octyl-β-D-glucoside (Anatrace, Maumee, OH) and 0.05% BSA. All steps were performed at room temperature (23° C.). The assay was performed by pre-incubating serial dilutions of test compounds with the target HDAC prior to initiation with substrate. Each compound was titrated in a 10-point dose response, using a 1:3 fold dilution scheme, with 0.15 ul of solution added by ECHO555 to the plate, followed by the addition of 20 μl of the appropriate HDAC isoform diluted in appropriate assay buffer. […] Final conditions used for each assay were: 1. HDAC 1, 0.3 nM total enzyme, 20 μM substrate BML-K1104; 2. HDAC 2, 1.5 nM total enzyme, 40 μM substrate BML-K1104; 3. HDAC 3/SMRT, 0.3 nM total enzyme, 20 μM substrate BML-K1104; 4. HDAC 6, 1.3 nM total enzyme, 2.5 μM substrate BML-K1104; 5. HDAC 8, 1.3 nM total enzyme, 200 μM substrate BML-K1178; the final high dose of test compound was 30 μM. […] The reactions were stopped and developed by addition of 30 ul of HDAC developer solution containing a saturating level of HDAC inhibitor as follows: 1.
On to `COc1nc2ccccc2cc1-c1cnc([C@H](COCCCC(=O)c2ccon2)NC(=O)CN(C)C)[nH]1` [Compound 14, N-{(1R)-2-(4-isoxazol-3-yl-4-oxobutoxy)-1-[5-(2-methoxyquinolin-3-yl)-1H-imidazol-2-yl]ethyl}-N~2~,N~2~- dimethylglycinamide], for which the IC50 was determined as 2.2 nM.

`COc1nc2ccccc2cc1-c1cnc([C@H](COCCCC(=O)c2ncco2)NC(=O)CN(C)C)[nH]1` [Compound 13, N-{(1R)-1-[5-(2-methoxyquinolin-3-yl)-1H-imidazol-2-yl]-2-[4-(1,3-oxazol-2-yl)-4-oxobutoxy]ethyl}-N~2~,N~2~- dimethylglycinamide]: the IC50 was found to be 3.8 nM.

Turning to `COc1nc2ccccc2cc1-c1cnc([C@H](COCCCC(=O)c2ncco2)NC(=O)C23CCN(CC2)CC3)[nH]1` [Compound 12, N-{(1R)-1-[5-(2-methoxyquinolin-3-yl)-1H-imidazol-2-yl]-2-[4-(1,3-oxazol-2-yl)-4-oxobutoxy]ethyl}-1-azabicyclo[2.2.2]octane-4-carboxamide], the IC50 was found to be 7.7 nM.

Take `COc1cc2nc(C)ccc2cc1-c1cnc([C@H](COCCCC(=O)c2cc(C)on2)NC(=O)C2CN(C)C2)[nH]1` [Compound 19, N-{(1R)-1-[5-(7-methoxy-2-methylquinolin-6-yl)-1H-imidazol-2-yl]-2-[4-(5-methylisoxazol-3-yl)-4-oxobutoxy]ethyl}-1-methylazetidine-3-carboxamide]: the IC50 was determined as 1.3 nM.

Regarding `CN1CC(C(=O)N[C@@H](COCCCC(=O)c2ccon2)c2ncc(-c3ccccc3F)[nH]2)C1` [Compound 15, N-[(1R)-1-[5-(2-fluorophenyl)-1H-imidazol-2-yl]-2-(4-isoxazol-3-yl-4-oxobutoxy)ethyl]-1-methylazetidine-3-carboxamide], the IC50 amounted to 1.6 nM.

As to `CN1CC(C(=O)N[C@@H](COCCCC(=O)c2ccon2)c2[nH]c(-c3ccc(F)cc3)nc2Cl)C1` [Compound 16, N-[(1R)-1-[4-chloro-2-(4-fluorophenyl)-1H-imidazol-5-yl]-2-(4-isoxazol-3-yl-4-oxobutoxy)ethyl]-1-methylazetidine-3-carboxamide], the IC50 was 9.2 nM.

As to `COc1cc2nc(C)ccc2cc1-c1cnc([C@H](COCCCC(=O)c2cc(C)on2)NC(=O)[C@H]2CC23CCN(C)CC3)[nH]1` [Compound 20, (1S)-N-{(1R)-1-[5-(7-methoxy-2-methylquinolin-6-yl)-1H-imidazol-2-yl]-2-[4-(5-methylisoxazol-3-yl)-4-oxobutoxy]ethyl}-6-methyl-6-azaspiro[2.5]octane-1-carboxamide], the IC50 was found to be 0.8 nM.

Consider `CN1CCC2(CC1)C[C@@H]2C(=O)N[C@@H](COCCCC(=O)c1ccon1)c1[nH]c(-c2ccc(F)cc2)nc1Cl` [Compound 18, (1S)-N-[(1R)-1-[4-chloro-2-(4-fluorophenyl)-1H-imidazol-5-yl]-2-(4-isoxazol-3-yl-4-oxobutoxy)ethyl]-6-methyl-6-azaspiro[2.5]octane-1-carboxamide], for which the IC50 worked out at 1.3 nM.

Consider `Cc1ccc2cc(-c3cnc([C@H](CSCCCC(=O)c4ncco4)NC(=O)[C@H]4CC45CCN(C)CC5)[nH]3)ccc2n1` [Compound 21, (1S)-6-methyl-N-[(1R)-1-[5-(2-methylquinolin-6-yl)-1H-imidazol-2-yl]-2-{[4-(1,3-oxazol-2-yl)-4-oxobutyl]sulfanyl}ethyl]-6-azaspiro[2.5]octane-1-carboxamide], for which the IC50 turned out to be 1.5 nM.

Turning to `COc1nc2ccccc2cc1-c1cnc([C@@H](N)COCCCC(=O)c2ncco2)[nH]1` [Compound 1, (R)-4-(2-amino-2-(5-(2-methoxyquinolin-3-yl)-1H-imidazol-2-yl)ethoxy)-1-(oxazol-2-yl)butan-1-one], the IC50 was 185 nM.

Take `N[C@@H](COCCCC(=O)c1ccon1)c1ncc(-c2ccccc2F)[nH]1` [Compound 2, (R)-4-(2-amino-2-(5-(2-fluorophenyl)-1H-imidazol-2-yl)ethoxy)-1-(isoxazol-3-yl)butan-1-one]: the IC50 was 272 nM.

Regarding `CCC(=O)CCCOC[C@H](NC(=O)C12CCN(CC1)CC2)c1ncc(-c2cc3ccccc3nc2OC)[nH]1` [Compound 6, N-{(1R)-1-[5-(2-methoxyquinolin-3-yl)-1H-imidazol-2-yl]-2-[(4-oxohexyl)oxy]ethyl}-1-azabicyclo[2.2.2]octane-4-carboxamide], the IC50 came out at 87.3 nM.

Regarding `CN(C)CC(=O)N[C@@H](COCCCC(=O)c1ccon1)c1[nH]c(-c2ccc(F)cc2)nc1Cl` [Compound 17, N-[(1R)-1-[4-chloro-2-(4-fluorophenyl)-1H-imidazol-5-yl]-2-(4-isoxazol-3-yl-4-oxobutoxy)ethyl]-N~2~,N~2~- dimethylglycinamide], the IC50 was found to be 17 nM.

`COc1nc2ccccc2cc1-c1cnc([C@H](COCCCC(=O)c2ncco2)NC(=O)c2cncs2)[nH]1` [Compound 10, N-{(1R)-1-[5-(2-methoxyquinolin-3-yl)-1H-imidazol-2-yl]-2-[4-(1,3-oxazol-2-yl)-4-oxobutoxy]ethyl}-1,3-thiazole-5-carboxamide]: the IC50 was found to be 3.6 nM.

Consider `CNC(=O)C(=O)CCCOC[C@H](NC(=O)C12CCN(CC1)CC2)c1ncc(-c2cc3ccccc3nc2OC)[nH]1` [Compound 9, N-[(1R)-1-[5-(2-methoxyquinolin-3-yl)-1H-imidazol-2-yl]-2-{[5-(methylamino)-4,5-dioxopentyl]oxy}ethyl]-1-azabicyclo[2.2.2]octane-4-carboxamide], for which the IC50 is 1.5 nM.

For the molecule `CNC(=O)C(=O)CCCOC[C@H](NC(=O)c1cncs1)c1ncc(-c2cc3ccccc3nc2OC)[nH]1` [Compound 8, N-[(1R)-1-[5-(2-methoxyquinolin-3-yl)-1H-imidazol-2-yl]-2-{[5-(methylamino)-4,5-dioxopentyl]oxy}ethyl]-1,3-thiazole-5-carboxamide], the IC50 worked out at 1.5 nM.

As to `COc1nc2ccccc2cc1-c1cnc([C@H](COCCCC(=O)c2ncco2)NC(=O)[C@H]2CC23CCN(C)CC3)[nH]1` [Compound 11, (1S)-N-{(1R)-1-[5-(2-methoxyquinolin-3-yl)-1H-imidazol-2-yl]-2-[4-(1,3-oxazol-2-yl)-4-oxobutoxy]ethyl}-6-methyl-6-azaspiro[2.5]octane-1-carboxamide], the IC50 amounted to 5 nM.
